Values quoted from earlier work, collected in patent publication US5399700A, “Method for preparing enteric-coated oral drugs containing acid-unstable compounds” (Sunkyong Industries Co., Ltd., priority 1991, dated 1995).
Read-outs that look alike come from different tables or passages of the source. Values belong to the compound of their own block, whether it stands above or below them.

Assays:
[1] = Table 9
[2] = not given; remark: listed apart in the source

Structure (SMILES): CC(C)CN [Isobutylamine]
- pKa [1]: 10.42

- pKa [1]: 10.57
Structure (SMILES): CCCN [Propylamine]

Structure (SMILES): CC(C)(C)N [Tert-butylamine]
- pKa [1]: 10.87

Structure (SMILES): CCCCN(CCCC)CCCC [Tributylamine]
- pKa [1]: 10.87

Structure (SMILES): COc1ccc2[nH]c([S+]([O-])Cc3ncc(C)c(OC)c3C)nc2c1 (stereo not shown) [omeprazole]
- half-life (medium of below pH 4): 0.167 h
- half-life (pH 6.8): 18 h
- half-life (pH 11): about 300 days

- Ring-opening Half-life ([2]; 1n hcl): 6.2 h
Structure (SMILES): OC[C@H]1O[C@@H]2O[C@H]3[C@H](O)[C@@H](O)[C@@H](O[C@H]4[C@H](O)[C@@H](O)[C@@H](O[C@H]5[C@H](O)[C@@H](O)[C@@H](O[C@H]6[C@H](O)[C@@H](O)[C@@H](O[C@H]7[C@H](O)[C@@H](O)[C@@H](O[C@H]1[C@H](O)[C@H]2O)O[C@@H]7CO)O[C@@H]6CO)O[C@@H]5CO)O[C@@H]4CO)O[C@@H]3CO [α-CD, α-cyclodextrin]

- Ring-opening Half-life ([2]; 60° C., 1N HCl): 5.4 h
Structure (SMILES): OC[C@H]1O[C@@H]2O[C@H]3[C@H](O)[C@@H](O)[C@@H](O[C@H]4[C@H](O)[C@@H](O)[C@@H](O[C@H]5[C@H](O)[C@@H](O)[C@@H](O[C@H]6[C@H](O)[C@@H](O)[C@@H](O[C@H]7[C@H](O)[C@@H](O)[C@@H](O[C@H]8[C@H](O)[C@@H](O)[C@@H](O[C@H]1[C@H](O)[C@H]2O)O[C@@H]8CO)O[C@@H]7CO)O[C@@H]6CO)O[C@@H]5CO)O[C@@H]4CO)O[C@@H]3CO [β-CD, β-cyclodextrin]

- Ring-opening Half-life ([2]; 60° C., 1N HCl): 3.0 h
Structure (SMILES): OC[C@H]1O[C@@H]2O[C@H]3[C@H](O)[C@@H](O)[C@@H](O[C@H]4[C@H](O)[C@@H](O)[C@@H](O[C@H]5[C@H](O)[C@@H](O)[C@@H](O[C@H]6[C@H](O)[C@@H](O)[C@@H](O[C@H]7[C@H](O)[C@@H](O)[C@@H](O[C@H]8[C@H](O)[C@@H](O)[C@@H](O[C@H]9[C@H](O)[C@@H](O)[C@@H](O[C@H]1[C@H](O)[C@H]2O)O[C@@H]9CO)O[C@@H]8CO)O[C@@H]7CO)O[C@@H]6CO)O[C@@H]5CO)O[C@@H]4CO)O[C@@H]3CO [γ-CD]
